In patent US20220218729A1, “USE OF GINSENOSIDE M1 FOR TREATING CANCER” (priority 2019, published 2022):

What was measured:
Format in all cases: cell-based
[1] = tested on: human malignant melanoma A375.S2 cells; assay: Cell viability, trypan blue exclusion (A375.S2); conditions: 24 h, FIG. 1
Protocol: (§1) Human malignant melanoma A375.S2 cell line was obtained from the American Type Culture Collection (ATCC, USA). A375.S2 cells were grown in minimum essential medium supplemented with 10% fetal bovine serum, 100 U/mL of penicillin, and 100 μg/mL of streptomycin (Life Technologies, USA). PC-3 cells (hormone-independent human prostate cancer cells) were cultured in Ham's F12K medium supplemented with 7% fetal bovine serum, 100 U/mL of penicillin, and 100 μg/mL of streptomycin (Life Technologies, USA). Cells were cultured at 37° C. in a 5% CO2 incubator.
(§2) Seeding cells (2.5×10^5 cells/well) in 6-well plates and incubated with different concentrations of M1 (10, 20 and 40 μM), cisplatin (50 μM) or vehicle for 24 h. Cells were detached by trypsinization and the cell numbers were counted by trypan blue exclusion method.
To investigates the effect of M1 on the inhibition of human malignant melanoma cell growth, A375 cells were cultured with various concentration of M1.

[2] = tested on: human malignant melanoma A375.S2 cells; assay: Annexin V/PI apoptosis flow cytometry (A375.S2); conditions: 24 h, FIG. 4
Protocol: as §1
A375.S2 cells were seeded at 2.5×10^5 into 6-well plates, and incubated with M1 (40 μM), cisplatin (50 μM) or vehicle for 24 h. To perform apoptosis using an Annexin V-FITC/PI apoptosis detection kit (BD Biosciences, USA) according to the manufacturer's instructions, and then analyzed by flow cytometry (BD Biosciences).
(§3) To further investigate mechanism of action of M1, we used Annexin V/PI double staining by flow cytometry and crucial protein expression by Western blot analysis to measured targeting hallmarks of apoptosis.

[3] = tested on: human malignant melanoma A375.S2 cells; assay: Colony formation assay (A375.S2); conditions: M1 10, 20 and 40 μM, 10 days; FIG. 2
Protocol: as §1
(§4) Plate 500 cells per well into 6-well plates and incubated with different M1 concentrations (10, 20, and 40 μM) or vehicle for 10 days. Cells were fixed in 4% paraformaldehyde after washing with cold PBS twice, and stained with 0.5% crystal violet 10 min at room temperature.
To investigates the effect of M1 on the reduction of colony formation ability of melanoma cells, A375. S2 cells were subjected to colony formation assay with various concentration of M1.

[4] = tested on: human malignant melanoma A375.S2 cells; assay: Wound healing assay (A375.S2); conditions: M1 20 or 40 μM, 24 h, vs control; FIG. 3
Protocol: as §1
(§5) Cells were seeded at 6×10^5 into 6-well plates and incubated for 24 h. Then used a sterile 200-μl pipette tip to create a straight gap of constant width, and each well was washed with sterile PBS. Next, the cells were incubated with various concentrations of M1 (10, 20, and 40 μM) or vehicle. The cells were photographed at 0 and 24 h under a microscope at 100× magnification.
To investigates the effect of M1 on the inhibition of migration ability of melanoma cells, A375.S2 cells were subjected to the wound healing assay with various concentration of M1.

[5] = tested on: human malignant melanoma A375.S2 cells; assay: Western blot of apoptosis-related proteins (A375.S2); conditions: A375.S2, M1 10, 20 and 40 μM, 24 h, FIGS. 5A, 5B
Protocol: as §1
(§6) Plate 4×10^5 cells per well into 6-cm dish, and incubated with different concentrations of M1 (10, 20 and 40 μM), cisplatin (50 μM) or vehicle for 24 h. The cells were exacted by disruption in RIPA buffer (Sigma-Aldrich, Germany) in the presence of protease inhibitor cocktail. Each protein sample was run on a 12% SDS-PAGE gel and transferred to PVDF membrane, which was then incubated for 1 h at room temperature in blocking buffer and then overnight at 4° C. with primary antibodies against caspase-3, caspase-9 (Cell Signaling Technology, USA), Bax, Bcl-2 or β-actin (Santa Cruz, USA). The membrane was incubated for 1 h at room temperature with HRP-conjugated secondary antibodies. The proteins were detected using enhanced chemiluminescence reagent (GE, UK).
as §3

[6] = tested on: human prostate cancer PC-3 cells; assay: Cell viability, trypan blue exclusion (PC-3); conditions: M1 10, 20 and 40 μM, 24 h, dose-dependent; FIG. 6
Protocol: as §1, §2
Plate human prostatic cancer cell line PC-3 2.5×10^5 per 6-well plates and cultured in Ham's F12K medium supplemented with 7% fetal bovine serum, 100 U/mL of penicillin, and 100 μg/mL of streptomycin (Life Technologies, USA). Cells were cultured overnight at 37° C. in a 5% CO2 incubator, and then treated with different concentrations of M1 (10, 20 and 40 μM) or vehicle for 24 h, and the cell numbers were counted by trypan blue exclusion method. […] The data are expressed as the means±SEM for three separate experiments. *p<0.05, **p<0.01. […]

[7] = tested on: human prostate cancer PC-3 cells; assay: Colony formation assay (PC-3); conditions: M1 10, 20 and 40 μM, 10 days, dose-dependent, vs vehicle; FIG. 7
Protocol: as §1, §4
Seeding 500 cells per 6-well plates and treated for 10 days with different concentrations of M1 (10, 20, and 40 μM) or vehicle. The cells were fixed in 4% paraformaldehyde for 15 min, after washing with cold PBS twice, and stained with 0.5% crystal violet 10 min at room temperature. […] The data are expressed as the means±SEM for three separate experiments. *p<0.05, ***p<0.005. (One-way ANOVA and subsequent Scheffe's test).

[8] = tested on: human prostate cancer PC-3 cells; assay: Wound healing assay (PC-3); conditions: M1 20 or 40 μM, 24 h, vs vehicle; FIG. 8
Protocol: as §1, §5
Next, we performed whether M1 reduces the migration ability by wound healing assay in PC-3 cells. Cells were seeded at 6×10^5 per 6-well plates in culture medium and were grown overnight at 37° C. in a 5% CO2 incubator. Each well was scratched with sterile 200-μl pipette tip in the cell monolayer, and washed with sterile PBS twice. […] The data are expressed as the means±SEM for three separate experiments. *p<0.05, ***p<0.005. […]

[9] = tested on: human prostate cancer PC-3 cells; assay: Annexin V/PI apoptosis flow cytometry (PC-3); conditions: M1 40 μM, 24 h, vs vehicle; FIG. 9
Protocol: as §1
(§7) Furthermore, to investigate mechanisms underlying the apoptosis-inducing activity of M1, we detected Annexin V/PI double staining by flow cytometry and apoptosis related protein expression by Western blot. PC-3 cells were plate 2.5×10^5 per 6-well plates, and incubated with M1 (40 μM) or vehicle for 24 h. The cells were harvested by gently trypsinizing and wash with ice-PBS twice, then stained with Annexin V-FITC/PI apoptosis detection kit (BD Biosciences, USA) according to the manufacturer's instructions and measured using a flow cytometer within 1 hour. […] The data are expressed as the means±SEM for three separate experiments. ***p<0.005. (One-way ANOVA and subsequent Scheffe's test).

[10] = tested on: human prostate cancer PC-3 cells; assay: Western blot of apoptosis-related proteins (PC-3); conditions: PC-3, M1 10, 20 and 40 μM, 24 h, FIGS. 10A, 10B
Protocol: as §1, §6, §7

| SMILES | cell numbers of A375.S2 cells ([1]; cisplatin 50 μM, positive control) | percentage of A375.S2 cells with Annexin V/PI double staining ([2]; cisplatin 50 μM) | cell numbers of A375.S2 cells ([1]; M1 10, 20 and 40 μM, vs control) | numbers of colonies of A375.S2 cells [3] | cell migration ability of A375.S2 cells [4] | percentage of A375.S2 cells with Annexin V/PI double staining ([2]; M1 40 μM) | Bcl-2 protein expression ([5]; dose-dependent) | pro-caspase-3 protein expression ([5]; dose-dependent) | pro-caspase-9 protein expression ([5]; dose-dependent) | levels of caspase-3 [5] | levels of caspase-9 [5] | cell numbers of PC-3 cells [6] | colony formation ability of PC-3 cells [7] | cell migration ability of PC-3 cells [8] | percentage of PC-3 cells with Annexin V/PI double staining [9] | Bax/Bc1-2 ratio ([10]; dose-dependent) | protein levels of caspase-9 ([10]; dose-dependent) | pro-caspase-3 protein expression [10] | pro-caspase-9 protein expression [10] |
| --- | --- | --- | --- | --- | --- | --- | --- | --- | --- | --- | --- | --- | --- | --- | --- | --- | --- | --- | --- |
| N.N.[Cl][Pt][Cl] [cisplatin, reference compound] | decreased the cell numbers | greatly increased the percentage | – | – | – | – | – | – | – | – | – | – | – | – | – | – | – | – | – |
| CC(C)=CCC[C@](C)(O[C@@H]1OC(CO)[C@@H](O)[C@@H](O)C1O)[C@H]1CC[C@]2(C)C1[C@H](O)CC1[C@@]3(C)CC[C@H](O)C(C)(C)C3CC[C@]12C (stereo partly drawn) [M1, 20-O-β-D-glucopyranosyl-20(S)-protopanaxadiol] | – | – | decreased the cell numbers | reduced dose-dependently | markedly decreased the cell migration ability | greatly increased the percentage | decrease | decrease | decrease | significantly increased | significantly increased | significantly decrease cell numbers | inhibited the colony formation ability | significantly decreased the cell migration ability | greatly increased the percentage | increased | increased | significantly decreased | significantly decreased |
